Tests used:
TREK-1 channel = biological target: T1, TREK-1 channel (Rattus norvegicus, UniProt Q920B6); test: Assay for TREK channel inhibition activity (whole cell patch clamp recording, COS7 cell transfected with GFP-rTREK-1); type: cell-based; conditions: COS7 cells, GFP-rTREK-1, whole-cell patch clamp; for inhibition at 101 µM: COS-7, Table 3 (value ± spread), 101 μM [sic], read-out: block % at 101 μM; for inhibition at 10 µM: COS-7, Table 2, read-out: block % at 10 μM
T1 construct: expressed in transfected cells; host or cells: COS7 (Korean Cell Line Bank), transient transfection with Effectene
T1 sequence (Q920B6 1-426): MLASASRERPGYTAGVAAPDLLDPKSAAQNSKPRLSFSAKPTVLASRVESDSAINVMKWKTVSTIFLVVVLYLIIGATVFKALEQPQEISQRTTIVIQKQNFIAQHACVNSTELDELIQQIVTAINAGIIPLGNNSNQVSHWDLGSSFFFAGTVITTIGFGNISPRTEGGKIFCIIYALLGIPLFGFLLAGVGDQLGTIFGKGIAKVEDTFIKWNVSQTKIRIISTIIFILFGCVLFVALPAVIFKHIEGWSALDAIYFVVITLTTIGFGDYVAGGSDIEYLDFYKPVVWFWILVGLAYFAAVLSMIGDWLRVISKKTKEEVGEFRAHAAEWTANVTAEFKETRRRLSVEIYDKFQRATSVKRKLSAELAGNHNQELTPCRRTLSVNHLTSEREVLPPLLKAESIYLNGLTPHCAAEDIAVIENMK
Procedure: The inhibition activity of the compound of the present invention against TREK-1 channel was measured by measuring the physiological activity by whole cell patch clamp recording.
COS7 cell (obtained from Korean Cell Line Bank (KCLB)) was transfected with GFP-rTREK-1 gene (accession number: AY727922) using an Effectene transfection reagent (Qiagen), and cultured for 24 hours in an incubator at 37° C. As a culture medium, Dulbecco's modified Eagle's medium (DMEM, GIBCO products from Invitrogen) containing 10% by weight of fetal bovine serum (FBS) and 1% by weight of penicillin/streptomycin (5000 unit/ml) was used. The cells thus prepared were adhered on a cover glass, which was placed on a chamber, and then a recording solution (150 mM NaCl, 10 mM HEPES, 10 mM KCl, 2 mM CaCl2, 5.5 mM D-Glucose, all reagents were purchased from Sigma) was applied. A glass microelectrode was filled with an intracellular solution prepared with the composition of 150 mM KCl, 5 mM EGTA, 10 mM HEPES, 0.5 mM CaCl2, 1 mM MgCl2, 4 mM Mg-ATP, and 0.3 mM Na-GTP (all reagents were purchased from Sigma), followed by whole-cell patch clamp recording. The voltage was fixed at −70 mV using a Digidata 1322A data acquisition system (Molecular Devices) and an Axopatch 200A amplifier (Axon Instruments), and the current generated by applying a voltage ramp from −100 mV to +100 mV for 1 second was measured using a Clampex9.2 program. A difference between the current values measured at +100 mV and −100 mV was defined as a current in the above experiment. The currents before and after blocker treatment were measured so as to determine the inhibition activity.
Block %=100−(current after blocker treatment/current before blocker treatment)*100

[1] = biological target: α1G T-type calcium channel (Homo sapiens, UniProt O43497); test: Assay for T-type calcium channel inhibition activity (FDSS6000 calcium imaging, KCl activation); type: cell-based; conditions: 75 s pre-treatment then KCl 75 mM, HEK293 cells expressing α1G T-type calcium channel and Kir2.1
Chain of α1G T-type calcium channel (O43497 whole entry): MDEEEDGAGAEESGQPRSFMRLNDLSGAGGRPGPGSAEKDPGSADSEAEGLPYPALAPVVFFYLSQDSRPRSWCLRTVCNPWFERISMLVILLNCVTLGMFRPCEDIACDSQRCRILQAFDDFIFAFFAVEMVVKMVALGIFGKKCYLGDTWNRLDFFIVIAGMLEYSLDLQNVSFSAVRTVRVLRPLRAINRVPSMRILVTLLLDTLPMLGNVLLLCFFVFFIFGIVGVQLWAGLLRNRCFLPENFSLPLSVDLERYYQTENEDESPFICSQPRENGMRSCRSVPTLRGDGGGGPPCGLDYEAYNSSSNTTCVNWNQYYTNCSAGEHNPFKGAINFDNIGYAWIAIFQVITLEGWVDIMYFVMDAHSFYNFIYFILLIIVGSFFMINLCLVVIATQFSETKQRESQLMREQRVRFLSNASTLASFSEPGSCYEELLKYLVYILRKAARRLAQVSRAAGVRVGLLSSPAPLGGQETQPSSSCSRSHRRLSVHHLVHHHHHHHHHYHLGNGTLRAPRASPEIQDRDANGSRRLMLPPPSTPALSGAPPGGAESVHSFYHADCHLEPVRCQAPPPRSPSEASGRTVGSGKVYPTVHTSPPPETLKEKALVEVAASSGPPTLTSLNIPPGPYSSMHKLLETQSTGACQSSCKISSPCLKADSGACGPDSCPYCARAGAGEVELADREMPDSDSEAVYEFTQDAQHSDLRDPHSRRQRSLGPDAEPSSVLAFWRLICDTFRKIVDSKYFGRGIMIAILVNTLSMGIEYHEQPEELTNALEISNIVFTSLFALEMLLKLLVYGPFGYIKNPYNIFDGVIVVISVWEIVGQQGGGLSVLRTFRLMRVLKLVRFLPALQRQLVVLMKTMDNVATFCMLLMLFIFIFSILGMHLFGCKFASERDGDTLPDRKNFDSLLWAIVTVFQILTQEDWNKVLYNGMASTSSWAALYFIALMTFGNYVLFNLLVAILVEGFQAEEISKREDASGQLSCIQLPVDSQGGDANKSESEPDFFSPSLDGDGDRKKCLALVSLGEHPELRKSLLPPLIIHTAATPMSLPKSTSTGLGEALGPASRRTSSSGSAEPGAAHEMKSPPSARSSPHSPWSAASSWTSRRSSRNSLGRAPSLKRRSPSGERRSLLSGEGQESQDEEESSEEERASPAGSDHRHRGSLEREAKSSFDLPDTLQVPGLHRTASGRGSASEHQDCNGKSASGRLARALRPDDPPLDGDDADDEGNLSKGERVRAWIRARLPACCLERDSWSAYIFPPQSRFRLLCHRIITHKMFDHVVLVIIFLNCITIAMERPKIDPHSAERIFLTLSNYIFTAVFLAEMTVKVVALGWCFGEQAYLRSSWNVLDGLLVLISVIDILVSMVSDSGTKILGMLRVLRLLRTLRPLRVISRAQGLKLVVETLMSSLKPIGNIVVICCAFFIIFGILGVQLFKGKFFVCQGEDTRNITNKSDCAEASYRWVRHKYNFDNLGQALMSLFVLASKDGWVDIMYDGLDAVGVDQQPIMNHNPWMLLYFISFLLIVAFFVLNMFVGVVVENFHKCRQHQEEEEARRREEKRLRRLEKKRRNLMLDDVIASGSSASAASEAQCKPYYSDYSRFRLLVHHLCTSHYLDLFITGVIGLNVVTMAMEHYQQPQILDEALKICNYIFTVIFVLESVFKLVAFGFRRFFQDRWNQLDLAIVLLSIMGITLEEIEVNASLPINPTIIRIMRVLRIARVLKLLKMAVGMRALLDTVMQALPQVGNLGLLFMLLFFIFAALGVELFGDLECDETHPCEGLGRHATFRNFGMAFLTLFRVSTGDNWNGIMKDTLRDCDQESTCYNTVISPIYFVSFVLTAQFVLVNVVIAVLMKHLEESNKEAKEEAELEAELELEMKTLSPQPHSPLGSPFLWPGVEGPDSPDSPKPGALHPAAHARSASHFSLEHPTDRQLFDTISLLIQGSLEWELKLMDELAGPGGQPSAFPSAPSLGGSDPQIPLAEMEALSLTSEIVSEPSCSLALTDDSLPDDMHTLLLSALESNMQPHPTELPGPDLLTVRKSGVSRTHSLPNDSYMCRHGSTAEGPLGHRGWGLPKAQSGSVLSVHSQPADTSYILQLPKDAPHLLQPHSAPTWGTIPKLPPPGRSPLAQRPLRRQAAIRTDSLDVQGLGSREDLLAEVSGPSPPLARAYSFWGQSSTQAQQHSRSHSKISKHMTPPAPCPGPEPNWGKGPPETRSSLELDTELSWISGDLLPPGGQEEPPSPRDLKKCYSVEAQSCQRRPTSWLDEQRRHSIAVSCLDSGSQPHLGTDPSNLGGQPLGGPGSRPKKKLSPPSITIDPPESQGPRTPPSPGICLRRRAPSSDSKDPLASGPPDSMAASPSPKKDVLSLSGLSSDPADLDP
Procedure: At 12-24 hours before the assay for T-type calcium channel activity, cells of HEK293 cell line (α1G cell line: KCTC 10519BP, GenBank, Korea Research Institute of Bioscience and Biotechnology) which stably express α1G T-type calcium channel and Kir2.1, were sub-cultured in a poly-L-lysine (0.05 mg/ml) treated 96-well plate with the density of 4×10^4 per a well using a 96-well cell dispenser (Titertek). On the day of assay, the 96-well plate to which the cells were attached were washed three times with a HEPES buffer solution (unit mM: 150 NaCl, 5 KCl, 1 MgCl2, 2 CaCl2, 10 HEPES, 10 glucose, pH 7.4) using a 96-well plate automatic washing device (Bio Tek), and then reacted with a HEPES buffer solution containing 5 μM fluo-3/AM and 0.001% (w/v) Pluronic F-127 at room temperature for 1 hour, to label with fluorescent dye, and then further washed twice with the HEPES buffer solution. Thereafter, at 10 minutes before the measurement using a FDSS6000 device, a washing with a HEPES buffer solution containing 10 mM CaCl2 was conducted once more, and the final volume was adjusted to 81 μl. Besides the above 96-well plate containing the cells, additional two 96-well drug plates were provided, in which the 96-well plates contained KCl (final concentration: 75 mM) for activating T-type calcium channel and a blocker drug, respectively.
Since most of cell-based HTS (High throughput screening) devices are equipped with a liquid application system for drug injection, but have no liquid sucking system, the blocker drug to be tested and KCl were respectively provided at the five-times higher concentration in 10 mM CaCl2 HEPES buffer solution at the amount of 27 μl, diluted five-times at the final cell plate volume of 135 μl, and then used in this test. In this Experimental Example, therefore, FDSS6000 (Hamamatsu Photonics) was used as an alternative to HTS device.
Specific FDSS6000 measurement conditions are as follows: After recording the reference value of 20 seconds, the change of intracellular calcium concentration which induced by pre-treatment of the drug (the prepared […]) for 75 seconds followed by administration of KCl was measured, in which the percentage (%) inhibition effect of the test drug was determined, through estimating the area of ratio value of 340/380 in the control without treatment of the test drug as 100%. As a reference drug, 10 μM of mibefradil was always used.
For accurate calcium-imagination, the light sources of 4 xenon lamps in FDSS6000 were radiated to make the cells exposed selectively to the excitation wavelength (340 nm and 380 nm) by computer-controlled filter wheel. Data was obtained at interval of each 1.23 second. The emitter fluorescence light inflow through a 515 nm long-pass filter was obtained as an average 340/380 ratio value for each well in the 96-wells by a cooled CCD camera and digital fluorescence analyzer in the device. All image data and analysis were obtained by using a FDSS6000-exclusive program provided by Hamamatsu Photonics, as described above.

| SMILES | inhibition at 101 µM (TREK-1 channel) | inhibition [1] | inhibition at 10 µM (TREK-1 channel) | block % at 100 μM (TREK-1 channel; Table 2) | block % at 100 μM (TREK-1 channel; Table 3 (value ± spread)) |
| --- | --- | --- | --- | --- | --- |
| O=C(CN1CCN(C[C@H](O)COc2ccccc2)CC1)NCc1ccccc1 [KKRE10203, (S)-N-benzyl-2-(4-(2-hydroxy-3-phenoxypropyl)piperazin-1-yl)acetamide] | 38 ± 6.42% | 17% | 38% | – | – |
| O[C@@H](COc1ccc(F)cc1)CN1CCC(O)(c2ccccc2)CC1 [KKRE10179] | 19.9 ± 4.25% | 16% | – | – | – |
| O[C@@H](COc1ccc(F)cc1)CN1CCC(N2CCCCC2)CC1 [KKRE10158, (R)-1-(1,4′-bipiperidin-1′-yl)-3-(4-fluorophenoxy)propan-2-ol] | 16.8 ± 2.73% | 6.65% | – | – | – |
| O[C@H](COc1ccc(F)cc1)CN1CCC(N2CCCC2)CC1 [KKRE10161, (S)-1-(4-fluorophenoxy)-3-(4-(pyrrolidin-1-yl)piperidin-1-yl)propan-2-ol] | 8.28 ± 3.49% | -0.06% | – | – | – |
| O[C@@H](COc1ccc(F)cc1)CN1CCC(F)(F)CC1 [KKRE10178, (R)-1-(4,4-difluoropiperidin-1-yl)-3-(4-fluorophenoxy)propan-2-ol] | 66 ± 4.05% | 37.6% | – | – | – |
| O[C@H](COc1ccc(C(F)(F)F)cc1)CN1CCC(N2CCCCC2)CC1 [KKRE10188, (S)-1-(1,4′-bipiperidin-1′-yl)-3-(4-(trifluoromethyl)phenoxy)propan-2-ol] | 55.6 ± 0.23% | 5.73% | – | – | – |
| O=C(CN1CCN(C[C@@H](O)COc2ccccc2)CC1)NCc1ccccc1 [KKRE10202, (R)-N-benzyl-2-(4-(2-hydroxy-3-phenoxypropyl)piperazin-1-yl)acetamide] | 0.84 ± 1.76% | 21.4% | – | – | – |
| O=C(CN1CCN(C[C@H](O)COc2ccc(C(F)(F)F)cc2)CC1)NC1CCCCC1 [KKRE10175, (S)-N-cyclohexyl-2-(4-(2-hydroxy-3-(4-(trifluoromethyl)phenoxy)propyl)piperazin-1-yl)acetamide] | 18.1 ± 6.92% | 43.1% | 18.1% | 74.61% | 74.61 ± 2.15% |
| O[C@@H](COc1ccc(F)cc1)CN1CCC(N2CCOCC2)CC1 [KKRE10156, (R)-1-(4-fluorophenoxy)-3-(4-morpholinopiperidin-1-yl)propan-2-ol] | 16.4 ± 5.65% | 5.31% | – | – | – |

Second part, the compound after the results:

| inhibition at 101 µM (TREK-1 channel) | inhibition [1] | inhibition at 10 µM (TREK-1 channel) | block % at 100 μM (TREK-1 channel; Table 2) | block % at 100 μM (TREK-1 channel; Table 3 (value ± spread)) | SMILES |
| --- | --- | --- | --- | --- | --- |
| 41.4 ± 12.7% | 35.8% | – | – | – | CC(C)Cc1cc(CNC(=O)CN2CCN(C[C@H](O)COc3ccc(C(F)(F)F)cc3)CC2)nn1-c1cc(Cl)cc(Cl)c1 [KKRE10220, (S)-N-((1-(3,5-dichlorophenyl)-5-isobutyl-1H-pyrazol-3-yl)methyl)-2-(4-(2-hydroxy-3-(4-(trifluoromethyl)phenoxy)propyl)piperazin-1-yl)acetamide] |
| 77.5 ± 5.19% | 67% | – | 91.23% | 91.22 ± 1.77% | CC(C)Cc1cc(CNC(=O)CN2CCN(C[C@@H](O)COc3ccc(C(F)(F)F)cc3)CC2)nn1-c1ccccc1 [KKRE10210, (R)-2-(4-(2-Hydroxy-3-(4-(trifluoromethyl)phenoxy)propyl)piperazin-1-yl)-N-((5-isobutyl-1-phenyl-1H-pyrazol-3-yl)methyl)acetamide] |
| 29.9 ± 3.9% | 28.6% | 29.9% | – | – | Cc1ccc(CNC(=O)CN2CCN(C[C@@H](O)COc3ccc(C)cc3)CC2)cc1 [KKRE10198, (R)-2-(4-(2-hydroxy-3-(p-tolyloxy)propyl)piperazin-1-yl)-N-(4-methylbenzyl)acetamide] |
| 25.4 ± 7.87% | 55.4% | 25.4% | – | – | Cc1ccc(OC[C@@H](O)CN2CCN(CC(=O)NCc3ccc(C(F)(F)F)cc3)CC2)cc1 [KKRE10201, (S)-2-(4-(2-hydroxy-3-(p-tolyloxy)propyl)piperazin-1-yl)-N-(4-(trifluoromethyl)benzyl)acetamide] |
| 87.6 ± 2.43% | 63.4% | – | – | – | CC(C)Cc1cc(CNC(=O)CN2CCN(C[C@@H](O)COc3ccc(F)cc3)CC2)nn1-c1cc(Cl)cc(Cl)c1 [KKRE10223, (R)-N-((1-(3,5-Dichlorophenyl)-5-isobutyl-1H-pyrazol-3-yl)methyl)-2-(4-(3-(4-fluorophenoxy)-2-hydroxypropyl)piperazin-1-yl)acetamide] |
| 74.1 ± 2.75% | 77.6% | – | – | – | Cc1ccc(F)cc1-n1nc(CNC(=O)CN2CCN(C[C@H](O)COc3ccc(F)cc3)CC2)cc1CC(C)C [KKRE10229, (S)-N-((1-(5-Fluoro-2-methylphenyl)-5-isobutyl-1H-pyrazol-3-yl)methyl)-2-(4-(3-(4-fluorophenoxy)-2-hydroxypropyl)piperazin-1-yl)acetamide] |
| 58.6 ± 4.35% | 73.2% | – | – | – | CC(C)Cc1cc(CNC(=O)CN2CCN(C[C@H](O)COc3ccc(F)cc3)CC2)nn1-c1ccc(F)cc1 [KKRE10228, (S)-2-(4-(3-(4-Fluorophenoxy)-2-hydroxypropyl)piperazin-1-yl)-N-((1-(4-fluorophenyl)-5-isobutyl-1H-pyrazol-3-yl)methyl)acetamide] |
| 37.6 ± 5.55% | 48.8% | 37.6% | 88.17% | 88.17 ± 4.60% | Cc1ccc(CNC(=O)CN2CCN(C[C@H](O)COc3ccc(C(F)(F)F)cc3)CC2)cc1 [KKRE10174, (S)-2-(4-(2-hydroxy-3-(4-(trifluoromethyl)phenoxy)propyl)piperazin-1-yl)-N-(4-methylbenzyl)acetamide] |
| 45.1 ± 3.6% | 77.8% | – | – | – | Cc1ccc(F)cc1-n1nc(CNC(=O)CN2CCN(C[C@@H](O)COc3ccc(F)cc3)CC2)cc1CC(C)C [KKRE10224, (R)-N-((1-(5-Fluoro-2-methylphenyl)-5-isobutyl-1H-pyrazol-3-yl)methyl)-2-(4-(3-(4-fluorophenoxy)-2-hydroxypropyl)piperazin-1-yl)acetamide] |

From patent publication US9458120B2, “Phenoxypropanol derivative and pharmaceutical composition including the same” (KOREA INSTITUTE OF SCIENCE AND TECHNOLOGY, priority 2011, dated 2016)
